# Key:
# [1] = system: F344/N rats; conditions: week 92
# [2] = system: B6C3F1 mice; conditions: week 91
compound,measurement,setting,value
c1ccccc1 [benzene],Survival in all groups,[1],greater than 60%
same,Survival in all groups,[2],greater than 60%
